± gives the standard deviation.
Experiment: chemical recovery from spiked human plasma; higher = better extraction
Conditions: pooled human plasma
[1] = extraction method: SPE only (HLB 96-well), PES comparison experiment
[2] = extraction method: SPE only (HLB 96-well)
[3] = extraction method: solvent precipitation (ACN + hexane)
[4] = extraction method: PES+SPE (3 d PDMS equilibration then HLB SPE)

Structure (SMILES)	chemical recovery [1]	chemical recovery [2]	chemical recovery [3]	chemical recovery [4]
CC1(C)O[C@@H]2C[C@H]3[C@@H]4C[C@H](F)C5=CC(=O)C=C[C@]5(C)[C@@]4(F)[C@@H](O)C[C@]3(C)[C@]2(C(=O)CO)O1 [Fluocinolone acetonide]	46.1 ± 5.2%			
CC(C)CCCCCCOC(=O)c1ccccc1C(=O)OCCCCCCC(C)C [Diisononyl-phthalate]		23.4 ± 7.7%		
CCCOC(=O)NCCCN(C)C [Propamocarb]		6.68 ± 4.3%	54.9 ± 3.7%	
NNc1ccccc1 [Phenylhydrazine]			40.7 ± 8.9%	
O=C(O)Cc1ccc(S(=O)(=O)O)cc1 [(4-Sulfophenyl)acetic acid]	6.28 ± 4%			
CCCCCC(CCC)COC(=O)c1ccccc1C(=O)OCC(CCC)CCCCC (stereo unspecified) [Bis(2-propylheptyl)-phthalate]			70.9 ± 7.4%	
Cc1cccc(C)c1N [2,6-Xylidine]		7.08 ± 5%	48 ± 3.5%	
C=CCc1ccc(O)c(OC)c1 [Eugenol]		44.8 ± 1.8%	50.3 ± 6.1%	42.8 ± 4.4%
COP(=O)(OC)O/C(C)=C/C(=O)N(C)C [Dicrotophos]		37.3 ± 0.93%	59.3 ± 8.9%	38.5 ± 3.5%
c1ccc2nc3ccccc3cc2c1 [Acridine]	51.6 ± 11%	28.4 ± 1.4%	49.6 ± 2.4%	39.7 ± 8%
CCCCCCCCCC[N+](C)(C)CCCCCCCCCC [Didecyldimethylammonium]		67.1 ± 21%		
CC(C)(c1ccccc1)c1ccc(Nc2ccc(C(C)(C)c3ccccc3)cc2)cc1 [4,4'-Bis(alpha,alpha-dimethylbenzyl)diphenylamine]		2.12 ± 1.1%		
COc1cc(C)c(C(=O)c2c(OC)ccc(Br)c2C)c(OC)c1OC [Metrafenone]		50.3 ± 9.1%	76.4 ± 4.6%	
CCNC(=O)c1cccc(C)c1 [N-Ethyl-3-methylbenzamide]		37.3 ± 0.9%	57.5 ± 1%	29.2 ± 9.2%
Cc1cc2cccc(C)c2cc1C [1,6,7-Trimethylnaphthalene]		2.3 ± 4%		
COC(=O)c1ccc(C(=O)OC)cc1 [Dimethyl-terephthalate]			64.5 ± 14%	
O=C(O)C(F)(F)C(F)(F)C(F)(F)C(F)(F)C(F)(F)C(F)(F)C(=O)O [Perfluorosuberic-acid-]		5.56 ± 1.8%	71.9 ± 7.3%	0.975 ± 0.36%
O=S(=O)(O)C(F)(F)C(F)(F)C(F)(F)C(F)(F)C(F)(F)C(F)(F)F [Perfluorohexanesulfonic-acid]		34.4 ± 2.7%		40.9 ± 4.1%
CN1CCC[C@H]1c1cccnc1 [Nicotine]		0.399 ± 0.15%	49.1 ± 4.3%	0.141 ± 0.063%
